Biological target: T1, PAN endonuclease domain from influenza A type virus (H1N1) (PAN, residues 1-197) (Influenza A virus, UniProt P03433)
T1 construct: influenza A type virus (H1N1) (PAN, residues 1-197) was cloned; His tag (inferred from pET-28a vector and IMAC purification); made in house; host or cells: E. coli BL21 (DE3)
Format: biochemical
Details: ssDNA, 1 h, 37 °C; conivaptan 0–[…], dutasteride 0–1000 μM, rifaximin 0–1000 μM, lurasidone 0–3000 μM (Figure S1)

SMILES	inhibition of the endonuclease activity of PAN (in words)
O=C1[C@@H]2[C@H]3CC[C@H](C3)[C@@H]2C(=O)N1C[C@@H]1CCCC[C@H]1CN1CCN(c2nsc3ccccc23)CC1 [lurasidone]	no inhibition
CO[C@H]1/C=C/O[C@@]2(C)Oc3c(C)c(O)c4c(O)c(c5c(nc6cc(C)ccn65)c4c3C2=O)NC(=O)/C(C)=C\C=C\[C@H](C)[C@H](O)[C@@H](C)[C@@H](O)[C@@H](C)[C@H](OC(C)=O)[C@@H]1C [rifaximin]	no inhibition
CS(=O)(=O)c1cccc(C[C@H](NC(=O)c2c(Cl)cc3c(c2Cl)CCN(C(=O)c2ccc4ccoc4c2)C3)C(=O)O)c1 [lifitegrast]	inhibitory effect
C[C@]12C=CC(=O)N[C@@H]1CC[C@@H]1[C@@H]2CC[C@]2(C)[C@@H](C(=O)Nc3cc(C(F)(F)F)ccc3C(F)(F)F)CC[C@@H]12 [dutasteride]	no inhibition

Source: PMC8659148, “Drug Repurposing for Influenza Virus Polymerase Acidic (PA) Endonuclease Inhibitor” (Molecules, 2021)
